Columns and labels:
Format in all cases: cell-based, human
IGR-OV1 = assay: NCI-60 cytotoxicity, IGR-OV1; settings: IGR-OV1 (Ovarian), 72 h
Experimental: (§1) Briefly, human NCI-60 cancer cell lines were counted with a Vi-CELL Cell Viability Analyzer (Beckman Coulter), resuspended in RPMI-1640 medium containing 10% FBS and 1% penicillin/streptomycin and dispensed in wells of 96-well microplates (3000 cells per well for solid tumor and 5000 per well for blood tumor cells) using an epMotion 5075 liquid handler (Eppendorf) under a sterile condition, followed by incubation overnight at 37° C. in 5% (v/v) CO2. Cells were exposed to compounds in a dose-dependent manner for 72 h. An MTS dye (20 uL per well) was added to each well. Cell viability was determined by tetrazolium conversion to its […] dye. […] Each experiment was performed in duplicate. […] H9 cells are more sensitive to drugs, therefore instead of 72 hours, we choose 48 hour the incubation time for H9 cells.
(§2) IC50 values were determined using […] software (Biosoft).

OVCAR-4 = assay: NCI-60 cytotoxicity, OVCAR-4; settings: OVCAR-4 (Ovarian), 72 h
Experimental: as §1, §2

K-562 = assay: NCI-60 cytotoxicity, K-562; settings: K-562 (CML), 72 h
Experimental: as §1, §2

MOLT-4 = assay: NCI-60 cytotoxicity, MOLT-4; settings: MOLT-4 (ALL), 72 h
Experimental: as §1, §2

SR = assay: NCI-60 cytotoxicity, SR; settings: SR (Leukemia), 72 h
Experimental: as §1, §2

ACHN = assay: NCI-60 cytotoxicity, ACHN; settings: ACHN (Renal), 72 h
Experimental: as §1, §2

BT-S49 = assay: NCI-60 cytotoxicity, BT-S49; settings: BT-S49 (Breast), 72 h
Experimental: as §1, §2

SF-295 = assay: NCI-60 cytotoxicity, SF-295; settings: SF-295 (CNS), 72 h
Experimental: as §1, §2

MDA-MB-231 = assay: NCI-60 cytotoxicity, MDA-MB-231; settings: MDA-MB-231 (Breast), 72 h
Experimental: as §1, §2

NCI-H552 = assay: NCI-60 cytotoxicity, NCI-H552; settings: NCI-H552 (Lung), 72 h
Experimental: as §1, §2

SK-MEL-2 = assay: NCI-60 cytotoxicity, SK-MEL-2; settings: SK-MEL-2 (Melanoma), 72 h
Experimental: as §1, §2

UO31 = assay: NCI-60 cytotoxicity, UO31; settings: UO31 (Renal), 72 h
Experimental: as §1, §2

EKVX = assay: NCI-60 cytotoxicity, EKVX; settings: EKVX (Lung), 72 h
Experimental: as §1, §2

SNB-19 = assay: NCI-60 cytotoxicity, SNB-19; settings: SNB-19 (CNS), 72 h
Experimental: as §1, §2

SNB-75 = assay: NCI-60 cytotoxicity, SNB-75; settings: SNB-75 (CNS), 72 h
Experimental: as §1, §2

SW-620 = assay: NCI-60 cytotoxicity, SW-620; settings: SW-620 (Colon), 72 h
Experimental: as §1, §2

HL60 = assay: NCI-60 cytotoxicity, HL60; settings: HL60 (AML), 72 h
Experimental: as §1, §2

Colo 205 = assay: NCI-60 cytotoxicity, Colo 205; settings: Colo 205 (Colon), 72 h
Experimental: as §1, §2

OVCAR-3 = assay: NCI-60 cytotoxicity, OVCAR-3; settings: OVCAR-3 (Ovarian), 72 h
Experimental: as §1, §2

MALME-3M = assay: NCI-60 cytotoxicity, MALME-3M; settings: MALME-3M (Melanoma), 72 h
Experimental: as §1, §2

LOX IMVI = assay: NCI-60 cytotoxicity, LOX IMVI; settings: LOX IMVI (Melanoma), 72 h
Experimental: as §1, §2

SK-MEL-28 = assay: NCI-60 cytotoxicity, SK-MEL-28; settings: SK-MEL-28 (Melanoma), 72 h
Experimental: as §1, §2

SF-539 = assay: NCI-60 cytotoxicity, SF-539; settings: SF-539 (CNS), 72 h
Experimental: as §1, §2

SF-268 = assay: NCI-60 cytotoxicity, SF-268; settings: SF-268 (CNS), 72 h
Experimental: as §1, §2

NCI-H322M = assay: NCI-60 cytotoxicity, NCI-H322M; settings: NCI-H322M (Lung), 72 h
Experimental: as §1, §2

HCC-2998 = assay: NCI-60 cytotoxicity, HCC-2998; settings: HCC-2998 (Colon), 72 h
Experimental: as §1, §2

UACC257 = assay: NCI-60 cytotoxicity, UACC257; settings: UACC257 (Melanoma), 72 h
Experimental: as §1, §2

NCI/ADR-RES = assay: NCI-60 cytotoxicity, NCI/ADR-RES; settings: NCI/ADR-RES (Ovarian), 72 h
Experimental: as §1, §2

PC-3 = assay: NCI-60 cytotoxicity, PC-3; settings: PC-3 (Prostate), 72 h
Experimental: as §1, §2

MDA-MB-435 = assay: NCI-60 cytotoxicity, MDA-MB-435; settings: MDA-MB-435 (Melanoma), 72 h
Experimental: as §1, §2

HCT-15 = assay: NCI-60 cytotoxicity, HCT-15; settings: HCT-15 (Colon), 72 h
Experimental: as §1, §2

A549 = assay: NCI-60 cytotoxicity, A549; settings: A549 (Lung), 72 h
Experimental: as §1, §2

NCI-H23 = assay: NCI-60 cytotoxicity, NCI-H23; settings: NCI-H23 (Lung), 72 h
Experimental: as §1, §2

Compound Cc1ccc([N+](=O)[O-])cc1S(=O)(=O)N(C)/N=C/c1cnc2ccc(Br)cn12 [Compound 1] has an IC50 (IGR-OV1; Homo sapiens, IGROV-1) of 0.251 µM, an IC50 (OVCAR-4; Homo sapiens) of 0.403 µM and an IC50 (K-562; Homo sapiens, K562) of 0.416 µM. The IC50 (MOLT-4; Homo sapiens) was 0.527 µM, the IC50 (SR; Homo sapiens) was < 0.001 µM and the IC50 (ACHN; Homo sapiens) was 0.092 µM. The IC50 (BT-S49; Homo sapiens) was < 0.001 µM, the IC50 (SF-295; Homo sapiens) was 0.141 µM and the IC50 (MDA-MB-231; Homo sapiens) was 0.466 µM. The IC50 (NCI-H552; Homo sapiens) was > 10 µM, the IC50 (SK-MEL-2; Homo sapiens) was 0.317 µM and the IC50 (UO31; Homo sapiens, UO-31) was 0.115 µM. It also gave an IC50 (EKVX; Homo sapiens) of 1.22 µM, an IC50 (SNB-19; Homo sapiens) of 0.385 µM and an IC50 (SNB-75; Homo sapiens) of 0.435 µM. The IC50 (SW-620; Homo sapiens) was 0.074 µM, the IC50 (HL60; Homo sapiens, HL-60) was 0.005 µM and the IC50 (Colo 205; Homo sapiens) was 2.18 µM. The IC50 (OVCAR-3; Homo sapiens) was 0.071 µM, the IC50 (MALME-3M; Homo sapiens) was 0.116 µM and the IC50 (LOX IMVI; Homo sapiens) was 0.073 µM. It also gave an IC50 (SK-MEL-28; Homo sapiens) of 1.69 µM, an IC50 (SF-539; Homo sapiens) of 0.177 µM and an IC50 (SF-268; Homo sapiens) of 2.23 µM. For the same compound, the IC50 (NCI-H322M; Homo sapiens) was 1.5 µM, the IC50 (HCC-2998; Homo sapiens) was > 10 µM and the IC50 (UACC257; Homo sapiens, UACC-257) was 2.32 µM. For the same compound, the IC50 (NCI/ADR-RES; Homo sapiens) was 0.024 µM, the IC50 (PC-3; Homo sapiens) was 0.02 µM and the IC50 (MDA-MB-435; Homo sapiens) was > 10 µM. The IC50 (HCT-15; Homo sapiens) was 0.008 µM, the IC50 (A549; Homo sapiens) was 2.66 µM and the IC50 (NCI-H23; Homo sapiens) was > 10 µM.
O=C1NC(=NCc2cccs2)S/C1=C\c1ccc2ncccc2c1 [Compound A10] was tested, and the IC50 (IGR-OV1) was > 10 µM, the IC50 (OVCAR-4) was > 10 µM and the IC50 (K-562) was > 10 µM. The IC50 (MOLT-4) was 5.2 µM, the IC50 (SR) was 0.372 µM and the IC50 (ACHN) was 4.46 µM. For the same compound, the IC50 (BT-S49) was 4.78 µM, the IC50 (SF-295) was > 10 µM and the IC50 (MDA-MB-231) was > 10 µM. For the same compound, the IC50 (NCI-H552) was > 10 µM, the IC50 (SK-MEL-2) was > 10 µM and the IC50 (UO31) was > 10 µM. The IC50 (EKVX) was > 10 µM, the IC50 (SNB-19) was > 10 µM and the IC50 (SNB-75) was > 10 µM. For the same compound, the IC50 (SW-620) was > 10 µM, the IC50 (HL60) was 1.14 µM and the IC50 (Colo 205) was > 10 µM. The IC50 (OVCAR-3) was > 10 µM, the IC50 (MALME-3M) was > 10 µM and the IC50 (LOX IMVI) was 4.4 µM. For the same compound, the IC50 (SK-MEL-28) was > 10 µM, the IC50 (SF-539) was 2.55 µM and the IC50 (SF-268) was > 10 µM. The IC50 (NCI-H322M) was > 10 µM, the IC50 (HCC-2998) was > 10 µM and the IC50 (UACC257) was > 10 µM. The IC50 (NCI/ADR-RES) was 3.67 µM, the IC50 (PC-3) was > 10 µM and the IC50 (MDA-MB-435) was 6.6 µM. The IC50 (HCT-15) was 3.84 µM, the IC50 (A549) was > 10 µM and the IC50 (NCI-H23) was > 10 µM.
For O=C1NCCc2[nH]c(-c3ccncc3)cc21 [Compound A11], the IC50 (IGR-OV1) was > 10 µM, the IC50 (OVCAR-4) was > 10 µM and the IC50 (K-562) was > 10 µM. The IC50 (MOLT-4) was 6.98 µM, the IC50 (SR) was 0.286 µM and the IC50 (ACHN) was > 10 µM. The IC50 (BT-S49) was 0.705 µM, the IC50 (SF-295) was 7.64 µM and the IC50 (MDA-MB-231) was > 10 µM. For the same compound, the IC50 (NCI-H552) was > 10 µM, the IC50 (SK-MEL-2) was > 10 µM and the IC50 (UO31) was 4.03 µM. The IC50 (EKVX) was > 10 µM, the IC50 (SNB-19) was > 10 µM and the IC50 (SNB-75) was 6.14 µM. The IC50 (SW-620) was 3.93 µM, the IC50 (HL60) was 0.247 µM and the IC50 (Colo 205) was > 10 µM. It also gave an IC50 (OVCAR-3) of 2.52 µM, an IC50 (MALME-3M) of 3.05 µM and an IC50 (LOX IMVI) of 3.58 µM. For the same compound, the IC50 (SK-MEL-28) was 9.6 µM, the IC50 (SF-539) was 3.68 µM and the IC50 (SF-268) was > 10 µM. The IC50 (NCI-H322M) was > 10 µM, the IC50 (HCC-2998) was > 10 µM and the IC50 (UACC257) was > 10 µM. The IC50 (NCI/ADR-RES) was 1.44 µM, the IC50 (PC-3) was 9.18 µM and the IC50 (MDA-MB-435) was > 10 µM. For the same compound, the IC50 (HCT-15) was 2.54 µM, the IC50 (A549) was > 10 µM and the IC50 (NCI-H23) was > 10 µM.

Source: patent publication US20230190717A1, “P38 GAMMA INHIBITORS AND METHOD OF USE THEREOF” (City of Hope, priority 2017, published 2023)
